Measured values: US11814396B2, “Sesquiterpenoid analogs” (Purdue Research Foundation, priority 2018, dated 2023)

Legend:
[1] = tested on: production of nitric oxide; settings: reported; cited from earlier work
[2] = tested on: HeLa cells; assay: Visualization of DNA double strand breaks by γH2AX staining (confocal microscopy); assay type: cell-based
Procedure: HeLa cells were seeded (250′000 cells/mL) in a 6-well plate and reverse transfected with scrambled siRNA or POLE3 siRNA using RNAiMAX for two days. Cells were trypsinizned, seeded (150′000 cells/mL) in a 24-well plate containing a coverslip and left overnight to attach and grow. […] Cells were washed one time with PBS and fixed with methanol at −20° C. for 10 min. Cells were washed again two times with PBS and coverslip was transferred to a wet box.
Blocking was performed with a 5% bovine serum albumin (BSA) solution in PBS for 30 min. Cells were washed one time with PBS 0.1% BSA and rabbit antibody directed against H2AX pSer^139 (Sigma Aldrich H5912, 1/250 in PBS 0.1% BSA) was added and incubated for one hour at r.t. Cells were washed three times with PBS 0.1% BSA and incubated for one hour with anti-rabbit IgG Alexa Fluor 488 (Jackson, 1/200 in PBS 0.1% BSA). Cells were washed three times with PBS 0.1% BSA, one time with PBS, one time with water and then mounted on a slide with ProLong Gold antifade mountant with DAPI (Life Technologies). Cells were visualized with an LSM 700 confocal microscope (Zeiss).
Induced DNA damage was measured by confocal microscopy using γH2AX staining as marker.

[3] = biological target: T1, POLE3 (Homo sapiens, UniProt Q9NRF9); assay: Global proteomics profiling versus POLE3 knockdown; assay type: cell-based; settings: HeLa cells
T1 construct: endogenous in cells; host or cells: HeLa
T1 sequence (Q9NRF9 1-147): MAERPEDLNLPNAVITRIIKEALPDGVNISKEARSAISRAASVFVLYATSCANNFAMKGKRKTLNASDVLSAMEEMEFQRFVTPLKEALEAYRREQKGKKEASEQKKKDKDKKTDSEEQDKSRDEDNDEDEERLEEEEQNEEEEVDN
Text: To understand whether binding of Example 2 to C51 of POLE3 is productive and leads to the loss of function of this protein, POLE3 was knocked down in HeLa cells using siRNA and compared by global proteomics the protein expression profile in these cells versus cells treated with compound Example 2 or DMSO as control. […] Possibly as a compensatory effect, we also observed fourfold upregulation of POLE, another subunit of DNA polymerase ε.
Knockdown of POLE3 was achieved using RNAiMAx (Invitrogen) and POLE3 siRNA (Dharmacon) via reverse transfection according to the manual of the manufacturer. Briefly, 9 μL of 20 μM siRNA was mixed with 9 μL of RNAiMax reagent in 500 μL OptiMEM and incubated for 20 min. at r.t. […] Samples were analyzed by LC-MS/MS (see below) and the MS data was processed with MaxQuant (see below).
Peptides were resuspended in water with 0.1% formic acid (FA) and analyzed using EASY-nLC 1200 nano-UHPLC coupled to Q Exactive HF-X Quadrupole-Orbitrap mass spectrometer (Thermo Scientific). […]
The MS data was analyzed with MaxQuant (V1.6.1.0) and searched against the human proteome (Uniprot) and a common list of contaminants (included in MaxQuant). […] The minimum peptide length was set to 6 amino acids and peptide re-quantification, label-free quantification (MaxLFQ) and “match between runs” were enabled. […]

[4] = biological target: T2, SHP2 (Homo sapiens, UniProt Q06124); assay: PTP inhibition study with pNPP as substrate; assay type: biochemical; settings: pH 7, 25° C.; for IC50: 15 min
T2 sequence (Q06124 1-593): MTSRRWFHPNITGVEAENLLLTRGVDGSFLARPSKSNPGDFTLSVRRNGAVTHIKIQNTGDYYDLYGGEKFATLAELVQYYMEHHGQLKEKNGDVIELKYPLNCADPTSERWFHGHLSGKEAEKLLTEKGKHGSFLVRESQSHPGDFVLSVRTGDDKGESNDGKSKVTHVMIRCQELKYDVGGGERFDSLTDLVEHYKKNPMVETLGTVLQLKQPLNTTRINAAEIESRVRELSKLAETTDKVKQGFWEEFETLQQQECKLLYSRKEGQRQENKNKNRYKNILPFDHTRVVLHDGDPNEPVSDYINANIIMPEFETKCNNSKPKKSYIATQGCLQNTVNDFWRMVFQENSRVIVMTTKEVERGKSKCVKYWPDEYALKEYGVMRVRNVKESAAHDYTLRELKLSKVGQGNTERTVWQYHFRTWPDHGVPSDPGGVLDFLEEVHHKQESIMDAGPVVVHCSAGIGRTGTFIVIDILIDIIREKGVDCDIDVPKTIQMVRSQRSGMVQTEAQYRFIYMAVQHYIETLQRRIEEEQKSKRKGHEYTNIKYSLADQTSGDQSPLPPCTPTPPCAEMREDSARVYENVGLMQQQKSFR
Procedure: PTP Inhibition Study. Abies sesquiterpenoids and their analogs were evaluated for their ability to inhibit the reaction catalyzed by PTP1B and SHP2 using p-nitrophenyl phosphatae (pNPP) as a substrate at pH 7 and 25° C. […] The reaction was quenched after 3 (PTP1B) or 15 (SHP2) min by the addition of 25 μl of 5N NaOH. The absorbance at 405 nm was detected by a Spectra MAX 384 PLUS microplate spectrophotometer (Molecular Devices). IC50 values were calculated by fitting the absorbance at 405 nm versus inhibitor concentration to the following equation: A1/A0=IC50/(IC50+[I]) wherein A1 is the absorbance at 405 nm of the sample in the presence of inhibitor; A0 is the absorbance at 405 nm in the absence of inhibitor; and [I] is the concentration of the inhibitor.

[5] = biological target: T3, POLE3-GFP (Homo sapiens, UniProt Q9NRF9); assay: Gel-based determination of kinetic parameters Ki and kinact (Kitz and Wilson method); assay type: binding; settings: lysate of 293T cells overexpressing WT POLE3-GFP, 37° C., competition with 30 μM Example 4
T3 construct: expressed in transfected cells; host or cells: 293T
T3 sequence (Q9NRF9 1-147): T1 sequence (Q9NRF9 1-147)
Procedure: 293T cells in a 3.5 cm Petri dish were transfected with POLE3-WT-GFP-pEXP or […] using PEI-MAX. After 24 hours, lysates were prepared as described above. Proteins (1 mg/mL, 25 μL) were incubated with indicated compounds at indicated concentrations (25× stock in DMSO) for three hours at 37° C. Subsequently, 30 μM Example 4 (25× stock in DMSO) was added for one hour at r.t. Click chemistry, reducing SDS-PAGE and visualization were performed as described above. Proteins were transferred to a PVDF membrane using a Trans-Blot Turbo transfer system (Bio-Rad). Membrane was blocked with 3% BSA in Tris-Buffered Saline with 0.1% Tween 20 (TBST) for one hour at r.t. Mouse monoclonal antibody against GFP (Roche, 1/1000 in 3% BSA in TBST) was added and incubated overnight at 4° C. Membrane was washed three times for five min. with TBST and incubated with anti-mouse Alexa Fluor 647 (Jackson ImmunoResearch Inc., 1/500 in 3% BSA in TBST) for one hour at r.t. Membrane was washed four times for five min. with TBST and visualized with an Azure Biosystems Sapphire Biomolecular Imager.
WT POLES-GFP was overexpressed in 293T cells as described above and lysate was treated with indicated concentrations of Example 2 (1 μL of 25× stock in DMSO) for 1.5, 2, 2.5, 3, 3.5 or 4 hours at 37° C. […] Images were quantified using ImageJ and the kinetic parameters were determined using GraphPad Prism (V7.02).).

[6] = tested on: MDA-MB-231 lysate; assay: Gel-based in vitro JW-RF-001 competition of labeling with Example 4; assay type: binding; settings: 30 μM Example 4, MDA-MB-231 lysate, one hour at r.t.
Procedure: MDA-MB-231 lysate (2 mg/mL, 25 μL) was treated with indicated concentrations of azide probes (Example 4) (1 μL of 25× stock in DMSO) for one hour at r.t. Click chemistry was initiated by the addition of TAMRA alkyne (Sigma-Aldrich, 30 μM, 25× stock in DMSO), tris(2-carboxyethyl)phosphine hydrochloride (TCEP, Alfa Aesar, 1 mM, fresh 50× stock in water), tris[(1-benzyl-1H-1,2,3-triazol-4-yl)methyl]amine (TBTA, Sigma-Aldrich, 100 μM, 16× stock in DMSO:tBuOH 1:4), and copper(II) sulfate (1 mM, 50× stock in water) to the lysate and incubated in the dark for one hour at r.t. SDS-PAGE reducing loading buffer (4×) was added and proteins were separated using a 10% SDS-PAGE gel. Gels were visualized using an Azure Biosystems Sapphire Biomolecular Imager, then stained using Coomassie. Images were quantified with ImageJ (V1.51).
MDA-MB-231 lysate (2 mg/mL, 25 μL) was treated with either 3 mM JW-RF-001 (1 μL of 25× stock in DMSO) or DMSO for one hour at r.t. Subsequently, lysate was incubated with 30 μM Example 4 (1 μL, of 25× stock in DMSO) for one hour at r.t. Click chemistry, reducing SDS-PAGE and visualization were performed as described above.

[7] = biological target: T4, PTP1B (Homo sapiens, UniProt P18031); settings: reported by Hu et al., Eur. J. Org. Chem. 2016; cited from earlier work
T4 sequence (P18031 1-435): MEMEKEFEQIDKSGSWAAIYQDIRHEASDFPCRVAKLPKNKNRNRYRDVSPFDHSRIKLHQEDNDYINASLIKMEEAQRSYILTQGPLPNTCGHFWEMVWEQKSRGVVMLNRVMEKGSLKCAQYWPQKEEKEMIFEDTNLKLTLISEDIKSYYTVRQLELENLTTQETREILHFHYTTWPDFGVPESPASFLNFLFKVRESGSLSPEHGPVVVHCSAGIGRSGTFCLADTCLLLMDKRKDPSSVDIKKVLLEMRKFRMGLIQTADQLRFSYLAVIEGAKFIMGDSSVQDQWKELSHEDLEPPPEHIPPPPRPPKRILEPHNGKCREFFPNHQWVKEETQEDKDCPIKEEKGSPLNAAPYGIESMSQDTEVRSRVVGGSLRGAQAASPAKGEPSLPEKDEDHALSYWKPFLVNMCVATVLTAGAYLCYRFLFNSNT

SMILES: CC1=C[C@@]2(C[C@H](C)[C@H]3CC=C(C)[C@@H](O[C@@H]4O[C@H](CO)[C@@H](O)[C@H](O)[C@H]4O)[C@@H]3O2)OC1=O [Abiespiroside A, abiespiroside A]
- inhibitory activity against the production of nitric oxide [1]: potent inhibitory activity

SMILES: C=C1C[C@@]2(C[C@H](C)[C@H]3CC=C(C)C(=O)[C@@H]3O2)OC1=O [Example 2, (2R,4S,4aR,8aR)-4,7-dimethyl-4′-methylene-3,3′,4,4a,4′,8a-hexahydro-5′H-spiro[chromene-2,2′-furan]-5′,8(5H)-dione]
- γH2AX signal, combination with etoposide versus etoposide only-treated cells ([2]; 30 μM etoposide combined with 30 μM Example 2, 6 hours): significantly stronger γH2AX signal
- γH2AX signal intensity, compound alone ([2]; 30 μM, 6 hours): did not lead to an increase
- functional effect of binding on POLE3 (overlap of protein expression profile with POLE3 KD cells) ([3]; 30 μM, 6 h treatment): leads to the loss of function of POLE3
- upregulation of POLE ([3]; POLE3 KD and Example 2-treated (30 μM, 6 h)): fourfold
- preference for SHP2 over PTP1B [4]: 10 fold
- IC50 [4]: 44.9 ± 9.6 µM
- kinact [5]: 0.0045 s⁻¹
- Ki ([5]; read-out: POLE3-GFP binding constant Ki): 56.9 µM

SMILES: C=C1C[C@@]2(C[C@H](C)[C@H]3CC=C(CO)C(=O)[C@@H]3O2)OC1=O [Example 3, (2R,4S,4aR,8aR)-7-(hydroxymethyl)-4-methyl-4′-methylene-3,3′,4,4a,4′,8a-hexahydro-5′H-spiro[chromene-2,2′-furan]-5′,8(5H)-dione]
- preference for SHP2 over PTP1B [4]: 10 fold
- IC50 [4]: 33.3 ± 0.9 µM

SMILES: C=C1CC2(CC(C)C3CC=C(CO)C(O)C3O2)OC1=O (stereo not shown) [Example 3′]
- preference for SHP2 over PTP1B [4]: 10 fold
- IC50 [4]: 3.3 ± 0.1 µM

SMILES: C=C1C[C@@]2(C[C@H](C)[C@H]3CC=C(CN=[N+]=[N-])C(=O)[C@@H]3O2)OC1=O [Example 4, (2R,4S,4aR,8aR)-7-(azidomethyl)-4-methyl-4′-methylene-3,3′,4,4a,4′,8a-hexahydro-5′H-spiro[chromene-2,2′-furan]-5′,8(5H)-dione]
- binding of the azide probe in lysate [6]: binded to cysteines

SMILES: CC1=C[C@@]2(C[C@H](C)[C@H]3CC=C(CO)C(=O)[C@@H]3O2)OC1=O [beshanzuenone C]
- IC50 [7]: 59.7 µM

SMILES: CC1=C[C@@]2(C[C@H](C)[C@H]3CC=C(C)C(=O)[C@@H]3O2)OC1=O [beshanzuenone D]
- IC50 [7]: 40.4 µM
